In test [1] the target is Matrix metalloproteinase-9 (Homo sapiens, UniProt P14780). Nature of the test: Inhibition of Matrix metalloprotease-9.
Another test deals with T1, Interstitial collagenase (Homo sapiens, UniProt P03956).
T1 sequence (P03956 whole entry): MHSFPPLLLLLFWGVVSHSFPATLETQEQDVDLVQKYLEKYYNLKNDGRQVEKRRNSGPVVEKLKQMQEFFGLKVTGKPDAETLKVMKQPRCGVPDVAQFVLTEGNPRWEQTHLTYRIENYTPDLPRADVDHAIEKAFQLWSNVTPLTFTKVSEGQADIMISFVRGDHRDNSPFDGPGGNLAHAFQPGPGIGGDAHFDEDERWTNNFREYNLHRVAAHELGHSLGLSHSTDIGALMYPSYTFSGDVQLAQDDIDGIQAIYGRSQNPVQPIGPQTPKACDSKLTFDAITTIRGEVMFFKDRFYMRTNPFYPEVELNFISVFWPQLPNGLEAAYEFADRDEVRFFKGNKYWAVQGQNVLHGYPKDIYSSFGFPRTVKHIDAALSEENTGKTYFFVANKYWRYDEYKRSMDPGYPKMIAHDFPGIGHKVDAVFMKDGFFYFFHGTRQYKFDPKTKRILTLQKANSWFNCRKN
Nature of the test: Inhibition of Matrix metalloprotease-1.

The next test concerns the target T2, Matrilysin (Homo sapiens, UniProt P09237).
T2 sequence (P09237 whole entry): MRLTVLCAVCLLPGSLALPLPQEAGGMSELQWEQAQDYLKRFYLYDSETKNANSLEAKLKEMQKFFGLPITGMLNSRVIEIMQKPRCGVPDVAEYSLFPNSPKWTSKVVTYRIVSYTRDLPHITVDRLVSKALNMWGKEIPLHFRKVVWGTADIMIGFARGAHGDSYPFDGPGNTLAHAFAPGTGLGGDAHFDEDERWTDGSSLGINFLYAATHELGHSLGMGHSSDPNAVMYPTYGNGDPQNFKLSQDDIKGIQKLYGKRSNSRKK
Kind of test: Inhibition of Matrix metalloprotease-7.

Another test addresses Stromelysin-1 (Homo sapiens, UniProt P08254). Kind of test: Inhibition of Matrix metalloprotease-3.

The results in this text go back to ChEMBL document CHEMBL1131091, “Discovery of potent, achiral matrix metalloproteinase inhibitors” (J Med Chem, 1998).

Each structure is given as a SMILES string. pIC50: −log10 of the molar value.

A word on the pIC50: it is −log10 of the IC50, conventionally taken in molar units. High values mean a low IC50, low ones a high IC50.

Sequence of Stromelysin-1 (P08254 whole entry): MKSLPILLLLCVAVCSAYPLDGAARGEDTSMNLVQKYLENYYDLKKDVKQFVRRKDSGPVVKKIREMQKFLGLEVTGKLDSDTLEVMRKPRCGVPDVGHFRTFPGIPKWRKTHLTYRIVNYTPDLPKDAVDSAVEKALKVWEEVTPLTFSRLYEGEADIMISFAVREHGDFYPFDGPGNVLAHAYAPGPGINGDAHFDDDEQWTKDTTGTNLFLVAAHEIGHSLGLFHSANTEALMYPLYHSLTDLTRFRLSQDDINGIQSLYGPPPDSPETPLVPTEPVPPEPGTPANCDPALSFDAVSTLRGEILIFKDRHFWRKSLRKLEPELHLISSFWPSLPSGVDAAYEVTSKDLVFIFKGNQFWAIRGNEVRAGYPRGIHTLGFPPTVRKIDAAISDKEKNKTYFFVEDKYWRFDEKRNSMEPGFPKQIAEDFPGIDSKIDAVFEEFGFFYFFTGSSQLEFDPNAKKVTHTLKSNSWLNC
Sequence of Matrix metalloproteinase-9 (P14780 whole entry): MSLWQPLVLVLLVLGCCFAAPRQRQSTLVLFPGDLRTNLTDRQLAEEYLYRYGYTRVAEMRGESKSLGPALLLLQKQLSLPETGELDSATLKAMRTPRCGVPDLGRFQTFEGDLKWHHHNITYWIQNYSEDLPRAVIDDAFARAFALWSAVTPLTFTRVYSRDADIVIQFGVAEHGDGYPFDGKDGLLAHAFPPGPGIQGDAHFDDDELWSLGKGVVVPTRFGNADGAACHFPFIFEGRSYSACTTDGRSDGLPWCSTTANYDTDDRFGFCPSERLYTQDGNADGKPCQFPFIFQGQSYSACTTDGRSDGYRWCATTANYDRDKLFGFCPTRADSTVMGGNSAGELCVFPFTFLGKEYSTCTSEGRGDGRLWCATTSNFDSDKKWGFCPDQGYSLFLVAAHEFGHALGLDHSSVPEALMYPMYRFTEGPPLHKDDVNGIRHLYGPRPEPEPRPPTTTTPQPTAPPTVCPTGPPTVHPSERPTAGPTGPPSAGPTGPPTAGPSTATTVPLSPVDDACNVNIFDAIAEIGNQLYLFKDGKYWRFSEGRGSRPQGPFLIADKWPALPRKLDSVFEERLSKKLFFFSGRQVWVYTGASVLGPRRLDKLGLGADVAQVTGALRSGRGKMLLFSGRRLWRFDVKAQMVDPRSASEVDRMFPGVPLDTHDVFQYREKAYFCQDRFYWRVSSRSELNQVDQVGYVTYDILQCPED

`COc1ccc(S(=O)(=O)N2CC(C)(C)CN(S(=O)(=O)c3ccc(OC)cc3)C2C(=O)NO)cc1`: the pIC50 is 8.57 in test [1], 7.62 on Interstitial collagenase and 7.52 against Matrilysin.
On to `COc1ccc(S(=O)(=O)N2CC(O)CN(S(=O)(=O)c3ccc(OC)cc3)C2C(=O)NO)cc1` (stereo not drawn), for which the pIC50 was 7.39 against Stromelysin-1, 8.33 in test [1], 7.29 against Interstitial collagenase and 6.44 against Matrilysin.
For `COc1ccc(S(=O)(=O)N2CC3(CN(S(=O)(=O)c4ccc(OC)cc4)C2C(=O)NO)SCCCS3)cc1`, in that order: 7.71, 7.81, 7.10 and 6.91.
Consider `COc1ccc(S(=O)(=O)N2CCCCN(S(=O)(=O)c3ccc(OC)cc3)C2C(=O)NO)cc1`, for which the results for the pIC50 at Stromelysin-1 and against Interstitial collagenase were 5.89 and 6.08, respectively.
With `COc1ccc(S(=O)(=O)N2CCN(S(=O)(=O)c3ccc(OC)cc3)C2C(=O)NO)cc1`, the pIC50 against Stromelysin-1 was 5.97; on Interstitial collagenase it was 5.33.
As for `COc1ccc(S(=O)(=O)N2CCCN(S(=O)(=O)c3ccc(OC)cc3)C2C(=O)NO)cc1`, the pIC50 was 7.48 on Stromelysin-1, 8.41 in test [1], 7.10 at Interstitial collagenase and 6.34 against Matrilysin.
Turning to `CCCCOc1ccc(S(=O)(=O)N2CC(C)(C)CN(S(=O)(=O)c3ccc(OCCCC)cc3)C2C(=O)NO)cc1`, the results for the pIC50 (against Stromelysin-1; in test [1]; against Matrilysin) were 7.66, 7.00 and 6.15, respectively.
For `COc1ccc(S(=O)(=O)N(Cc2cccnc2)[C@@H](C(=O)NO)C(C)C)cc1` [CGS-27023A], the pIC50 on Matrilysin was 6.97.
